Values quoted from earlier work, collected in US5962457A, “2,3 Disubstituted- (5,6)-heteroarylfused-pyrimidine-4-ones” (Pfizer Inc., priority 1997, dated 1999).

Legend:
[1] = rat global ischemia models; LaPeillet et al.
[2] = focal and global ischemia models; Sheardown et al., Buchan et al., LePeillet et al.

| Structure (SMILES) | neuroprotection in global ischemia [1] | prevention of global and focal ischemic damage [2] |
| --- | --- | --- |
| CC1=NN=C(c2ccc(N)cc2)c2cc3c(cc2C1)OCO3 [GKYI 52466] | effective neuroprotective agent |  |
| NS(=O)(=O)c1cccc2c1c([N+](=O)[O-])cc1[nH]c(=O)c(=O)[nH]c12 [NBQX, 2,3-dihydroxy-6-nitro-7-sulfamoylbenzo[f-]quinoxaline] |  | effective in preventing global and focal ischemic damage |
